Results reported in PubChem BioAssay AID248 (DTP/NCI, 2004).
“And” between values parts separate entries of the source, which are not always exact repeats. Equal values may be shown once. Inconclusive results and toxic doses are left out. Cut-off read from the data, not from the text of the source: active = T/C of 150% or more; inactive = T/C below 125%.

Test system: L1210 leukemia ip in BDF1 mice, survival T/C
Test: NCI In Vivo Anticancer Drug Screen. Data for tumor model L1210 Leukemia (intraperitoneal) in B6D2F1 (BDF1) mice
Conditions: endpoint: mean survival time, higher = longer survival
Summary of the method: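 Tumor cells were implanted, animals were treated, and survival was followed. The result divides the treated measurement by the vehicle-control measurement.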

[1] = dose: 100.0 mg/kg/injection, schedule: Q04DX003 (ip), vehicle: saline with Tween-80
[2] = dose: 200.0 mg/kg/injection, schedule: Q04DX003 (ip), vehicle: saline with Tween-80
[3] = dose: 400.0 mg/kg/injection, schedule: Q04DX003 (ip), vehicle: saline with Tween-80
[4] = dose: 50.0 mg/kg/injection, schedule: Q01DX001 (ip), vehicle: saline
[5] = dose: 100.0 mg/kg/injection, schedule: Q01DX001 (ip), vehicle: saline
[6] = dose: 200.0 mg/kg/injection, schedule: Q01DX001 (ip), vehicle: saline
[7] = dose: 400.0 mg/kg/injection, schedule: Q01DX001 (ip), vehicle: saline
[8] = dose: 100.0 mg/kg/injection, schedule: Q01DX001 (ip), vehicle: other
[9] = dose: 200.0 mg/kg/injection, schedule: Q01DX001 (ip), vehicle: other
[10] = dose: 75.0 mg/kg/injection, schedule: Q01DX009 (ip), vehicle: Klucel (hydroxypropylcellulose) (HPC)
[11] = dose: 150.0 mg/kg/injection, schedule: Q01DX009 (ip), vehicle: Klucel (hydroxypropylcellulose) (HPC)
[12] = dose: 300.0 mg/kg/injection, schedule: Q01DX009 (ip), vehicle: Klucel (hydroxypropylcellulose) (HPC)
[13] = dose: 75.0 mg/kg/injection, schedule: Q01DX001 (ip), vehicle: saline
[14] = dose: 150.0 mg/kg/injection, schedule: Q01DX001 (ip), vehicle: saline
[15] = dose: 100.0 mg/kg/injection, schedule: Q01DX001 (ip), vehicle: Klucel (hydroxypropylcellulose) (HPC)
[16] = dose: 200.0 mg/kg/injection, schedule: Q01DX001 (ip), vehicle: Klucel (hydroxypropylcellulose) (HPC)
[17] = dose: 400.0 mg/kg/injection, schedule: Q01DX001 (ip), vehicle: Klucel (hydroxypropylcellulose) (HPC)

Measured: T/C

O=[N+]([O-])c1cccc2c1CCCC2
inactive: dose: 12.5 mg/kg/injection, schedule: Q01DX009 (ip), vehicle: saline with Tween-80 98 % of control | dose: 25.0 mg/kg/injection, schedule: Q01DX009 (ip), vehicle: saline with Tween-80 93 % of control | dose: 50.0 mg/kg/injection, schedule: Q01DX009 (ip), vehicle: saline with Tween-80 98 % of control | [1] 107 % of control | dose: 200.0 mg/kg/injection, schedule: Q01DX009 (ip), vehicle: saline with Tween-80 87 % of control | [2] 105 % of control | dose: 400.0 mg/kg/injection, schedule: Q01DX009 (ip), vehicle: saline with Tween-80 105 % of control | [3] 96 % of control

O=C1C=CC(=O)c2c(O)c(CBr)c(CBr)c(O)c21
inactive: dose: 6.25 mg/kg/injection, schedule: Q01DX009 (ip), vehicle: water 101 % of control | dose: 12.5 mg/kg/injection, schedule: Q01DX009 (ip), vehicle: water 92 % of control | dose: 25.0 mg/kg/injection, schedule: Q01DX009 (ip), vehicle: water 93 % of control and 94 % of control | dose: 50.0 mg/kg/injection, schedule: Q01DX009 (ip), vehicle: water 89 % of control

CCOC(=O)/C(=C/c1cccc2ccccc12)P(=O)(OCC)OCC
inactive: [4] 97 % of control | [5] 97 % of control | [6] 103 % of control | [7] 101 % of control

O=c1[nH]c2ccccc2nc1CBr
inactive: dose: 12.5 mg/kg/injection, schedule: Q04DX003 (ip), vehicle: saline with Tween-80 94 % of control | dose: 25.0 mg/kg/injection, schedule: Q04DX003 (ip), vehicle: saline with Tween-80 89 % of control | dose: 50.0 mg/kg/injection, schedule: Q04DX003 (ip), vehicle: saline with Tween-80 86 % of control

O=C(O)c1cccc(Br)c1[N+](=O)[O-]
inactive: [5] 97 % of control | [6] 101 % of control

O=[N+]([O-])c1ccc(O)c(C2OCCCO2)c1
inactive: [5] 101 % of control | [6] 98 % of control | [7] 101 % of control

CC(C)=CCCC1(C)C=Cc2c(c(C)cc3c4ccccc4n(C)c23)O1 (stereo unspecified)
inactive: dose: 25.0 mg/kg/injection, schedule: Q04DX002 (ip), vehicle: DMSO 96 % of control | dose: 50.0 mg/kg/injection, schedule: Q04DX002 (ip), vehicle: DMSO 89 % of control | dose: 100.0 mg/kg/injection, schedule: Q04DX002 (ip), vehicle: DMSO 99 % of control

CN(C)S(=O)(=O)c1ccc(CCc2ccccc2)cc1
inactive: [4] 101 % of control | [5] 95 % of control | [6] 95 % of control | [7] 95 % of control

C1CCN(c2c3c(nc4nnnn24)CCC3)CC1
inactive: dose: 5.0 mg/kg/injection, schedule: Q01DX001 (ip), vehicle: other 98 % of control | dose: 10.0 mg/kg/injection, schedule: Q01DX001 (ip), vehicle: other 96 % of control | dose: 20.0 mg/kg/injection, schedule: Q01DX001 (ip), vehicle: other 98 % of control | dose: 40.0 mg/kg/injection, schedule: Q01DX001 (ip), vehicle: other 110 % of control | dose: 80.0 mg/kg/injection, schedule: Q01DX001 (ip), vehicle: other 96 % of control | [8] 96 % of control | [9] 96 % of control

C[C@]12C=CC(=O)C=C1CC[C@H]1[C@@H]3CCC(=O)O[C@@]3(C)CC(=O)[C@@]12F
inactive: dose: 50.0 mg/kg/injection, schedule: Q01DX001 (sc), vehicle: steriod suspending solution 102 % of control | dose: 50.0 mg/kg/injection, schedule: Q01DX009 (sc), vehicle: steriod suspending solution 102 % of control | dose: 100.0 mg/kg/injection, schedule: Q01DX001 (sc), vehicle: steriod suspending solution 104 % of control | dose: 100.0 mg/kg/injection, schedule: Q01DX009 (sc), vehicle: steriod suspending solution 100 % of control | dose: 200.0 mg/kg/injection, schedule: Q01DX001 (sc), vehicle: steriod suspending solution 107 % of control | dose: 200.0 mg/kg/injection, schedule: Q01DX009 (sc), vehicle: steriod suspending solution 97 % of control | dose: 400.0 mg/kg/injection, schedule: Q01DX001 (sc), vehicle: steriod suspending solution 113 % of control | dose: 400.0 mg/kg/injection, schedule: Q01DX009 (sc), vehicle: steriod suspending solution 100 % of control

Cc1c(Cl)cc(Cl)c(N)c1Cl
inactive: [1] 100 % of control | [2] 98 % of control | [3] 96 % of control

NC(=O)Oc1ccc(C2CC(=O)C(C(N)=O)C(=O)C2)cc1 (stereo unspecified)
inactive: [8] 97 % of control | [1] 108 % of control | [9] 92 % of control | [2] 103 % of control | dose: 400.0 mg/kg/injection, schedule: Q01DX001 (ip), vehicle: other 94 % of control | [3] 100 % of control

O=[N+]([O-])c1ccc(Oc2ccccc2)c(Cl)c1
inactive: [10] 101 % of control | dose: 75.0 mg/kg/injection, schedule: Q04DX003 (ip), vehicle: Klucel (hydroxypropylcellulose) (HPC) 96 % of control | [11] 108 % of control | dose: 150.0 mg/kg/injection, schedule: Q04DX003 (ip), vehicle: Klucel (hydroxypropylcellulose) (HPC) 110 % of control | [12] 108 % of control | dose: 300.0 mg/kg/injection, schedule: Q04DX003 (ip), vehicle: Klucel (hydroxypropylcellulose) (HPC) 93 % of control

SC1c2ccccc2-c2ccc(Br)cc21 (stereo unspecified)
inactive: [5] 101 % of control | [6] 99 % of control | [7] 97 % of control

O=C(O)C(C(=O)O)C(=O)O
inactive: [13] 94 % of control | [14] 94 % of control

CC1C(C)(C)P(=O)(NCCOP2(=O)C(C)(C)C(C)C2(C)C)C1(C)C (stereo unspecified)
inactive: dose: 100.0 mg/kg/injection, schedule: Q04DX003 (ip), vehicle: saline 100 % of control | dose: 200.0 mg/kg/injection, schedule: Q04DX003 (ip), vehicle: saline 92 % of control | dose: 400.0 mg/kg/injection, schedule: Q04DX003 (ip), vehicle: saline 96 % of control

CC(Br)CNC(=O)c1ccc([N+](=O)[O-])cc1 (stereo unspecified)
inactive: [10] 107 % of control | [11] 97 % of control | [12] 101 % of control

CN(C)c1ccc(C(=O)CCCN2CCC(O)(c3ccc(Cl)cc3)CC2)cc1
inactive: [15] 95 % of control | [16] 94 % of control | [17] 90 % of control

CS(=O)(=O)OCC(COS(C)(=O)=O)(COS(C)(=O)=O)COS(C)(=O)=O
inactive: dose: 100.0 mg/kg/injection, schedule: Q04DX002 (ip), vehicle: Klucel (hydroxypropylcellulose) (HPC) 96 % of control | dose: 200.0 mg/kg/injection, schedule: Q04DX002 (ip), vehicle: Klucel (hydroxypropylcellulose) (HPC) 92 % of control | dose: 400.0 mg/kg/injection, schedule: Q04DX002 (ip), vehicle: Klucel (hydroxypropylcellulose) (HPC) 107 % of control

O=C(OC1COC(OC(=O)c2ccc([N+](=O)[O-])cc2)C(OC(=O)c2ccc([N+](=O)[O-])cc2)C1OC(=O)c1ccc([N+](=O)[O-])cc1)c1ccc([N+](=O)[O-])cc1 (stereo unspecified)
inactive: [5] 93 % of control | [6] 96 % of control | [7] 96 % of control

CC(O)c1ccc[n+]([O-])c1 (stereo unspecified)
inactive: dose: 100.0 mg/kg/injection, schedule: Q01DX009 (ip), vehicle: saline 93 % of control | dose: 200.0 mg/kg/injection, schedule: Q01DX009 (ip), vehicle: saline 96 % of control | dose: 400.0 mg/kg/injection, schedule: Q01DX009 (ip), vehicle: saline 96 % of control

OCCS
inactive: dose: 25.0 mg/kg/injection, schedule: Q01DX001 (ip), vehicle: saline 105 % of control | dose: 44.0 mg/kg/injection, schedule: Q01DX001 (ip), vehicle: saline 95 % of control | [4] 97 % of control | dose: 66.0 mg/kg/injection, schedule: Q01DX001 (ip), vehicle: saline 105 % of control | [5] 100 % of control and 103 % of control | [14] 103 % of control | [6] 102 % of control and 105 % of control

ClCCCNCCCCl
inactive: [13] 101 % of control | [14] 97 % of control

CCCCCCCCCCCCCCCCCCN1CCS(=O)CC1
inactive: [15] 98 % of control | [16] 100 % of control | [17] 102 % of control
